Among the test systems are A498 renal; HCC-2998 colon; K-562 leukemia; MALME-3M melanoma; NCI-H23 lung; PC-3 prostate; SK-OV-3 ovarian; UACC-62 melanoma.
Assay in all cases: NCI tumour cell line growth inhibition, 48 h

Our source for the GI50 and TGI values is PubChem BioAssay (NCI).

Molecules are shown by their SMILES.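 1) Cells in 96-well plates. 2) Compound, 48 h, 5 concentrations. 3) Linear interpolation between surrounding doses. 4) Unreached endpoint = highest concentration. GI50 marks 50% less growth. TGI marks complete inhibition of growth.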

As to `COc1cccc(N2CC(O)=C(c3nc4ccccc4s3)C2=N)c1`, the GI50 with A498 renal is 0.33 µM; in the test with HCC-2998 colon it was 0.23 µM; in the test with K-562 leukemia, less than 0.0204 µM; in the test on MALME-3M melanoma, 0.266 µM; with NCI-H23 lung, 0.652 µM; in the test with PC-3 prostate it was 0.32 µM. Also, the GI50 in the test with SK-OV-3 ovarian was 0.702 µM; in the test on UACC-62 melanoma it was 0.239 µM. Further, the TGI was 20 µM in the test with A498 renal; 3.57 µM in the test with HCC-2998 colon; greater than 100 µM in the test on K-562 leukemia; greater than 100 µM in the test with MALME-3M melanoma; greater than 25.2 µM in the test with NCI-H23 lung; greater than 100 µM in the test on PC-3 prostate. Further, the results for the TGI in the test with SK-OV-3 ovarian and in the test on UACC-62 melanoma were 33.5 µM and 2.61 µM, respectively.

Turning to `Nc1nc(-c2ccc3c(c2)/C(=C\c2cc(Br)c(O)c(Br)c2)C(=O)N3)cs1`, the GI50 in the test on A498 renal was 5.57 µM; in the test with HCC-2998 colon, 17.8 µM; with K-562 leukemia, 10.6 µM; in the test with MALME-3M melanoma it was 5.95 µM; in the test on NCI-H23 lung, 14.3 µM; in the test with PC-3 prostate, 13.6 µM. Also, the results for the GI50 in the test on SK-OV-3 ovarian and in the test with UACC-62 melanoma were 17.9 µM and 6.89 µM, respectively. Further, the TGI in the test with A498 renal was 16.5 µM; in the test with HCC-2998 colon, greater than 25 µM; with K-562 leukemia it was greater than 25 µM; in the test on MALME-3M melanoma, 17.4 µM; with NCI-H23 lung it was greater than 25 µM; in the test on PC-3 prostate, greater than 25 µM. In addition, the TGI was greater than 25 µM in the test on SK-OV-3 ovarian and 23.7 µM in the test with UACC-62 melanoma.

`Cc1ccc2ccccc2c1CSc1nc(N)nc2c1ncn2CC(C)C`: the TGI is 99.6 µM in the test on A498 renal; greater than 71.6 µM with HCC-2998 colon; greater than 100 µM in the test with K-562 leukemia; greater than 62.2 µM with MALME-3M melanoma; greater than 100 µM in the test on NCI-H23 lung; greater than 89.9 µM with PC-3 prostate. For the same compound, the TGI in the test on SK-OV-3 ovarian and with UACC-62 melanoma was greater than 100 µM each time.

Turning to `C=CCc1c(O)c(C(=O)/C=C/c2ccc(Cl)cc2)c(OC)c2ccoc12`, the GI50 was 2.77 µM with A498 renal; 1.79 µM with HCC-2998 colon; 3.25 µM with K-562 leukemia; 2.74 µM with MALME-3M melanoma; 2.78 µM in the test with NCI-H23 lung; 3.81 µM in the test with PC-3 prostate. In addition, the GI50 in the test with SK-OV-3 ovarian was 5.96 µM; with UACC-62 melanoma, 2.88 µM. The TGI is 13 µM in the test on A498 renal; 3.26 µM in the test on HCC-2998 colon; greater than 100 µM in the test on K-562 leukemia; 8.51 µM with MALME-3M melanoma; 11.6 µM in the test with NCI-H23 lung; 15.6 µM in the test with PC-3 prostate. The TGI with SK-OV-3 ovarian stood at 19.2 µM; with UACC-62 melanoma it was 10.1 µM.

In the case of `CCN(CC)CCOc1nc2ccccc2c2c1-c1ccc(OC)cc1C2=O`, the GI50 in the test with A498 renal is 0.728 µM; in the test with HCC-2998 colon, 1.26 µM; with K-562 leukemia, 0.276 µM; in the test on MALME-3M melanoma it was 0.628 µM; with NCI-H23 lung it was 1.27 µM; in the test with PC-3 prostate it was 1.44 µM. The GI50 in the test on SK-OV-3 ovarian is 2.48 µM; in the test with UACC-62 melanoma, 1.7 µM. Moreover, the TGI with A498 renal turned out to be 2.18 µM; with HCC-2998 colon it was 3.21 µM; in the test with K-562 leukemia it was 1.19 µM; in the test on MALME-3M melanoma, 1.97 µM; in the test on NCI-H23 lung it was 4.07 µM; in the test on PC-3 prostate, 23.3 µM. Moreover, the TGI was greater than 36.6 µM in the test with SK-OV-3 ovarian and 4.48 µM in the test on UACC-62 melanoma.

Turning to `C[C@@H]1CC[C@@H]2[C@@H]1[C@H](OC(=O)/C=C/C1CCCCC1)[C@]1(C3CCCCC3)C[C@@H](OC(=O)CO)[C@@]2(C)O1`, the GI50 in the test on A498 renal is 0.0209 µM; with HCC-2998 colon, 16 µM; with K-562 leukemia, 15.9 µM; in the test with MALME-3M melanoma, 14.5 µM; in the test with NCI-H23 lung it was 16.6 µM; with PC-3 prostate, 11.5 µM. The GI50 in the test on SK-OV-3 ovarian is 15 µM; in the test with UACC-62 melanoma it was 13.5 µM. For the same compound, the TGI in the test on A498 renal stood at 0.0801 µM; in the test on HCC-2998 colon, 29.6 µM; in the test with K-562 leukemia it was 35.9 µM; in the test on MALME-3M melanoma, 28.9 µM; in the test on NCI-H23 lung, 31.7 µM; in the test with PC-3 prostate it was 24.3 µM. Besides, the TGI in the test with SK-OV-3 ovarian came to 27.7 µM; with UACC-62 melanoma, 26.8 µM.

Turning to `N#C/C(=C\c1ccc[nH]1)c1cc(-c2ccc(Cl)cc2)nn1-c1ccccc1`, the GI50 in the test with A498 renal was 2.62 µM; with HCC-2998 colon, 3.5 µM; in the test with K-562 leukemia, 3.24 µM; with MALME-3M melanoma, 3.05 µM; in the test on NCI-H23 lung, 4.19 µM; in the test with PC-3 prostate, 3.12 µM. The values for the GI50 in the test on SK-OV-3 ovarian and with UACC-62 melanoma were 7.88 µM and 7.39 µM, respectively. In addition, the TGI is 12.6 µM in the test on A498 renal; 12.4 µM in the test on HCC-2998 colon; 10.9 µM in the test with K-562 leukemia; 17.2 µM in the test on MALME-3M melanoma; 22.1 µM in the test with NCI-H23 lung; 23.1 µM in the test on PC-3 prostate. Besides, the TGI in the test on SK-OV-3 ovarian was 40.2 µM; in the test with UACC-62 melanoma it was 28.2 µM.

With `Nc1ccc(C#Cc2ccccc2C#CCCCCO)cc1`, the GI50 was 19.8 µM with A498 renal; 16.6 µM in the test on HCC-2998 colon; 19.7 µM in the test on K-562 leukemia; 24.8 µM with MALME-3M melanoma; 18.2 µM in the test on NCI-H23 lung; 15.6 µM with PC-3 prostate. The GI50 in the test on SK-OV-3 ovarian is 18.1 µM; in the test on UACC-62 melanoma, 14.9 µM. Further, the TGI in the test with A498 renal was 42.1 µM; with HCC-2998 colon, 31.3 µM; with K-562 leukemia it was 40.8 µM; in the test on MALME-3M melanoma it was 43.9 µM; in the test with NCI-H23 lung it was 35.1 µM; with PC-3 prostate it was 28.9 µM. The TGI in the test on SK-OV-3 ovarian was determined as 34.7 µM; in the test with UACC-62 melanoma, 28.3 µM.

Regarding `CC12CCC(C1)C(C)(C)C2OC(=O)c1ccccc1N` (centres undefined), the TGI in the test with A498 renal is 28.6 µM; in the test with HCC-2998 colon, 27.9 µM; in the test on K-562 leukemia, 32.1 µM; with MALME-3M melanoma it was 29.8 µM; in the test on NCI-H23 lung, 31.2 µM; in the test on PC-3 prostate, 27.3 µM. Besides, the TGI in the test on SK-OV-3 ovarian is 30.3 µM; in the test with UACC-62 melanoma, 29.2 µM.

In the case of `COc1cc(OC)c(/C=C/C(=O)c2c(OC)cc(OC)cc2OC)c(OC)c1`, the GI50 in the test with A498 renal was 0.27 µM; with HCC-2998 colon it was 1.24 µM; in the test with K-562 leukemia, 0.394 µM; in the test on MALME-3M melanoma, 1.07 µM; in the test on NCI-H23 lung, 1.35 µM; in the test with PC-3 prostate, 0.992 µM. Further, the GI50 with SK-OV-3 ovarian was 2.66 µM; in the test on UACC-62 melanoma it was 0.414 µM. Further, the TGI in the test with A498 renal is 4.85 µM; in the test with HCC-2998 colon it was 10 µM; with K-562 leukemia, greater than 100 µM; in the test on MALME-3M melanoma, greater than 100 µM; in the test on NCI-H23 lung, 6.67 µM; with PC-3 prostate, greater than 100 µM. For the same compound, the TGI in the test with SK-OV-3 ovarian amounted to 25.9 µM; with UACC-62 melanoma, 4.14 µM.
